{
  "source": "paper PMC6209510",
  "about": "(European journal of medicinal chemistry, 2017)",
  "data": [
    {"tested_on": "P. falciparum D6", "assay": "not given", "type": "cell-based, Plasmodium falciparum", "conditions": "Plasmodium falciparum, D6, 48 h, read-out: P. falciparum D6 IC50", "units": {"IC50": "µM"}, "values": [
      {"molecule": "CCN(CC)CCCC(C)Nc1ccnc2cc(Cl)ccc12", "note": "(stereo not drawn) [CQ, Chloroquine, reference compound]", "IC50": 0.083}
    ]},
    {"tested_on": "P. falciparum D6", "assay": "not given", "type": "cell-based, Plasmodium falciparum", "conditions": "Vero cells vs P. falciparum D6", "values": [
      {"molecule": "COc1cc(CNCCCCNCc2ccc(OCc3ccccc3)c(OC)c2)ccc1OCc1ccccc1", "note": "[Compound 26, N1,N4-bis(4-(benzyloxy)-3-methoxybenzyl) butane-1,4-diamine]", "SI (Selectivity Index: IC50 Vero Cells/IC50 Parasites), P. falciparum D6": ">27.4"},
      {"molecule": "COc1cc(CNCCCCCCNCc2ccc(OCc3ccccc3)c(OC)c2)ccc1OCc1ccccc1", "note": "[Compound 27, N1,N6-bis(4-(benzyloxy)-3-methoxybenzyl) hexane-1,6-diamine]", "SI (Selectivity Index: IC50 Vero Cells/IC50 Parasites), P. falciparum D6": ">31.7"}
    ]},
    {"tested_on": "P. falciparum W2", "assay": "not given", "type": "cell-based", "conditions": "Plasmodium falciparum, W2, 48 h, read-out: P. falciparum W2 IC50", "units": {"IC50": "µM"}, "values": [
      {"molecule": "CCN(CC)CCCC(C)Nc1ccnc2cc(Cl)ccc12", "note": "(stereo not drawn) [CQ, Chloroquine, reference compound]", "IC50": 0.422}
    ]},
    {"tested_on": "not listed separately", "assay": "Cytotoxicity assay on Vero cells", "type": "cell-based, African green monkey", "conditions": "African green monkey, Vero cells (mammalian kidney fibroblasts)", "values": [
      {"molecule": "c1ccc(CNCCCNCc2ccccc2)cc1", "note": "[Compound 1, N1,N3-dibenzylpropane-1,3-diamine]", "IC50 at 48 h": "> 4.76 µg/mL"},
      {"molecule": "COc1ccc(CNCCCNCc2ccc(OC)cc2)cc1", "note": "[Compound 7, N1,N3-bis(4-methoxybenzyl)propane-1,3-diamine]", "IC50 at 48 h": "> 4.76 µg/mL"},
      {"molecule": "COc1ccc(CNCCCCNCc2ccc(OC)cc2)cc1", "note": "[Compound 8, N1,N4-bis(4-methoxybenzyl)butane-1,4-diamine]", "IC50 at 48 h": "> 4.76 µg/mL"},
      {"molecule": "COc1ccc(CNCCCCCCNCc2ccc(OC)cc2)cc1", "note": "[Compound 9, N1,N6-bis(4-methoxybenzyl)hexane-1,6-diamine]", "IC50 at 48 h": "8.32 µM"},
      {"molecule": "COc1ccc(CNCCCCCCCCNCc2ccc(OC)cc2)cc1", "note": "[Compound 10, N1,N8-bis(4-methoxybenzyl)octane-1,8-diamine]", "IC50 at 48 h": "> 4.76 µg/mL"},
      {"molecule": "COc1ccc(CNCCCCCCCCCCNCc2ccc(OC)cc2)cc1", "note": "[Compound 11, N1,N10-bis(4-methoxybenzyl)decane-1,10-diamine]", "IC50 at 48 h": "> 4.76 µg/mL"},
      {"molecule": "COc1ccc(CNCCCCCCCCCCCCNCc2ccc(OC)cc2)cc1", "note": "[Compound 12, N1,N12-bis(4-methoxybenzyl)dodecane-1,12-diamine]", "IC50 at 48 h": "> 4.76 µg/mL"},
      {"molecule": "COc1ccc(CNCCCNCc2ccc(OC)c(O)c2)cc1O", "note": "[Compound 19, 5,5’-((propane-1,3-diylbis(azanediyl))bis(methylene))bis(2-methoxyphenol)]", "IC50 at 48 h": "> 4.76 µg/mL"},
      {"molecule": "COc1ccc(CNCCCCNCc2ccc(OC)c(O)c2)cc1O", "note": "[Compound 20, 5,5’-((butane-1,4-diylbis(azanediyl))bis(methylene))bis(2-methoxyphenol)]", "IC50 at 48 h": "> 4.76 µg/mL"},
      {"molecule": "COc1ccc(CNCCCCCCNCc2ccc(OC)c(O)c2)cc1O", "note": "[Compound 21, 5,5’-((hexane-1,6-diylbis(azanediyl))bis(methylene))bis(2-methoxyphenol)]", "IC50 at 48 h": "> 4.76 µg/mL"},
      {"molecule": "COc1ccc(CNCCCCCCCCNCc2ccc(OC)c(O)c2)cc1O", "note": "[Compound 22, 5,5’-((octane-1,8-diylbis(azanediyl))bis(methylene))bis(2-methoxyphenol)]", "IC50 at 48 h": "> 4.76 µg/mL"},
      {"molecule": "COc1ccc(CNCCCCCCCCCCNCc2ccc(OC)c(O)c2)cc1O", "note": "[Compound 23, 5,5’-((decane-1,10-diylbis(azanediyl))bis(methylene)) bis(2-methoxyphenol)]", "IC50 at 48 h": "> 4.76 µg/mL"},
      {"molecule": "COc1ccc(CNCCCCCCCCCCCCNCc2ccc(OC)c(O)c2)cc1O", "note": "[Compound 24, 5,5’-((dodecane-1,12-diylbis(azanediyl))bis(methylene))bis(2-methoxyphenol)]", "IC50 at 48 h": "> 4.76 µg/mL"},
      {"molecule": "COc1cc(CNCCCNCc2ccc(OCc3ccccc3)c(OC)c2)ccc1OCc1ccccc1", "note": "[Compound 25, N1,N3-bis(4-(benzyloxy)-3-methoxybenzyl) propane-1,3-diamine]", "IC50 at 48 h": "6.65 µM"},
      {"molecule": "COc1cc(CNCCCCNCc2ccc(OCc3ccccc3)c(OC)c2)ccc1OCc1ccccc1", "note": "[Compound 26, N1,N4-bis(4-(benzyloxy)-3-methoxybenzyl) butane-1,4-diamine]", "IC50 at 48 h": "> 4.76 µg/mL"},
      {"molecule": "COc1cc(CNCCCCCCNCc2ccc(OCc3ccccc3)c(OC)c2)ccc1OCc1ccccc1", "note": "[Compound 27, N1,N6-bis(4-(benzyloxy)-3-methoxybenzyl) hexane-1,6-diamine]", "IC50 at 48 h": "> 4.76 µg/mL"},
      {"molecule": "COc1cc(CNCCCCCCCCCCNCc2ccc(OCc3ccccc3)c(OC)c2)ccc1OCc1ccccc1", "note": "[Compound 29, N1,N10-bis(4-(benzyloxy)-3-methoxybenzyl) decane-1,10-diamine]", "IC50 at 48 h": "> 4.76 µg/mL"},
      {"molecule": "COc1cc(CNCCCCCCCCCCCCNCc2ccc(OCc3ccccc3)c(OC)c2)ccc1OCc1ccccc1", "note": "[Compound 30, N1,N12-bis(4-(benzyloxy)-3-methoxybenzyl) dodecane-1,12-diamine]", "IC50 at 48 h": "> 4.76 µg/mL"}
    ]},
    {"tested_on": "Vero cells", "assay": "Cytotoxicity assay on Vero cells", "type": "cell-based, African green monkey", "conditions": "48 h; tested at a maximum concentration of 8 μM; NC = not cytotoxic", "values": [
      {"molecule": "N1,N1,N10,N10-tetrakis(4-methoxybenzyl) decane-1,10 diamine [Compound 40]", "Cytotoxicity Vero cells IC50": "NC (not cytotoxic at the maximum concentration tested (4.46 μg/mL))"}
    ]},
    {"tested_on": "human foreskin fibroblast (HFF)", "assay": "Cytotoxicity on fibroblast", "type": "cell-based", "conditions": "no cytotoxicity at 10 μM", "units": {"cytotoxicity on fibroblast": "µM"}, "values": [
      {"molecule": "COc1cc(CNCCCNCc2ccc(OCc3ccccc3)c(OC)c2)ccc1OCc1ccccc1", "note": "[Compound 25, N1,N3-bis(4-(benzyloxy)-3-methoxybenzyl) propane-1,3-diamine]", "cytotoxicity on fibroblast": "> 10"}
    ]}
  ]
}
